{"source": "paper PMC12084410", "about": "“Reconstruction of the ancient cyanobacterial proto-circadian clock system KaiABC” (The EMBO Journal, 2025)", "key": {"KaiC [1]": {"molecular_target": "T1, KaiC (Synechococcus elongatus, UniProt Q79PF4)", "T1 construct": "full-length (CI 1-268, CII 269-519), pGEX-6P-1 (GST) in E. coli BL21, purified, hexamer", "T1 sequence (Q79PF4 1-519)": "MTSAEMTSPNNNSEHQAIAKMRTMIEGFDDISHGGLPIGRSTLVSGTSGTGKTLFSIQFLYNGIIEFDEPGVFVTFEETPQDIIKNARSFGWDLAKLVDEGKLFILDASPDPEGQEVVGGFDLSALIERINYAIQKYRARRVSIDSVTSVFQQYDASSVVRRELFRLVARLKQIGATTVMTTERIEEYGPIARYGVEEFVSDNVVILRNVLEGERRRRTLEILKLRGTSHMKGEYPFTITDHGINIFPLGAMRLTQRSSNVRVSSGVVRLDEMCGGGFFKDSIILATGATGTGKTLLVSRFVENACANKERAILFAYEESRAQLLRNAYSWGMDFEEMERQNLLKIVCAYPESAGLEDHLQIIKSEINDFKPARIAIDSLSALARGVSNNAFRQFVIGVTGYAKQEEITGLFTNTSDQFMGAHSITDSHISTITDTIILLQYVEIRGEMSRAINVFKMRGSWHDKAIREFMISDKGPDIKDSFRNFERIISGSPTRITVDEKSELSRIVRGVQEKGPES", "test": "HPLC ADP production (ATPase)", "type": "biochemical", "conditions": "1 mM ATP, 5 mM MgCl2, 150 mM NaCl, pH 8.0, 25 C"}, "KaiC [2]": {"molecular_target": "T2, KaiC (Synechococcus elongatus, UniProt Q79PF4, S229T/T240N)", "T2 construct": "full-length (CI 1-268, CII 269-519), pGEX-6P-1 (GST) in E. coli BL21, purified, hexamer", "T2 sequence (Q79PF4 whole entry S229T/T240N)": "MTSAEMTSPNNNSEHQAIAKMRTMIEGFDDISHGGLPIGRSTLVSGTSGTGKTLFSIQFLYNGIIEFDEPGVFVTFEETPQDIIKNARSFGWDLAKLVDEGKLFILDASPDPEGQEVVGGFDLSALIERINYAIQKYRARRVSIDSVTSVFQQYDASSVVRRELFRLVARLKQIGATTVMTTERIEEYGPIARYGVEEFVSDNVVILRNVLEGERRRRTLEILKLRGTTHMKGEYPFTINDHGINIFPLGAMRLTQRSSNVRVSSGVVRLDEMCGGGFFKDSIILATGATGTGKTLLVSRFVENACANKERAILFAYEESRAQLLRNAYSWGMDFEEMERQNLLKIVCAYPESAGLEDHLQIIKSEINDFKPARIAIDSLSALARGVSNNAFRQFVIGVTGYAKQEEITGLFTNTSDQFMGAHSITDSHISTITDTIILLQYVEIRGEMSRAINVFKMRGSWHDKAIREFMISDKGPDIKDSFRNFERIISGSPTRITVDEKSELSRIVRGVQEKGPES", "test": "HPLC ADP production (ATPase)", "type": "biochemical", "conditions": "1 mM ATP, 5 mM MgCl2, 150 mM NaCl, pH 8.0, 25 C"}}, "data": [{"smiles": "Nc1ncnc2c1ncn2[C@@H]1O[C@H](COP(=O)(O)OP(=O)(O)OP(=O)(O)O)[C@@H](O)[C@H]1O", "note": "[ATP]", "values": [{"measurement": "HPLC ADP production (ATPase)", "setting": "KaiC [1]", "result": "ATPase activity of anKaiC was significantly lower than that of KaiC"}, {"measurement": "HPLC ADP production (ATPase)", "setting": "KaiC [2]", "result": "the activity of ATP hydrolysis was significantly repressed in the double mutants"}]}]}
